Test results reported in ChEMBL document CHEMBL5576037, “Discovery of the first ataxia telangiectasia and Rad3-related (ATR) degraders for cancer treatment” (Eur J Med Chem, 2024).
Active and inactive are the calls of the source. The calls are words filed in the database; no cut-off is given here.

Key:
[1] = target: T1, Protein cereblon/Serine/threonine-protein kinase ATR (Homo sapiens, UniProt Q13535+Q96SW2); experiment: PROTAC activity at CRBN/ATR in human LoVo cells assessed as induction of ATR degradation at 2.5 uM incubated for 4 hrs by Western blot analysis; assay type: cell-based
LoVo [2] = experiment: Cell cycle arrest in human LoVo cells assessed as accumulation of cells at G2/M phase at 0.5 uM incubated for 72 hrs by PI staining based flow cytometric analysis (reference value: 22.2 %); assay type: functional
[3] = target: T1, Protein cereblon/Serine/threonine-protein kinase ATR; experiment: In vivo PROTAC activity at CRBN/ATR in BALB/c nude mouse xenografted with human LoVo cells assessed as reduction in CHK1 phosphorylation at Ser345 residue administered intraperitoneally once daily for 15 days by Western blot analysis; assay type: functional, organism-based; conditions: dose 12.5-25 mg/kg, route ip, time 15.0 day
LoVo [4] = experiment: Cell cycle arrest in human LoVo cells assessed as accumulation of cells at S phase at 1 uM incubated for 72 hrs by PI staining based flow cytometric analysis (reference value: 25.5 %); assay type: functional
[5] = target: T1, Protein cereblon/Serine/threonine-protein kinase ATR; experiment: PROTAC activity at CRBN/ATR in human LoVo cells assessed as induction of ATR degradation at 2.5 uM preincubated with MLN4924 for 4 hrs followed by compound addition and measured after 48 hrs by Western blot analysis; assay type: cell-based
[6] = target: T2, Serine/threonine-protein kinase Chk1 (Homo sapiens) (UniProt O14757); experiment: Inhibition of CHK1 phosphorylation at Ser345 residue in human LoVo cells incubated for 72 hrs by Western blot analysis; assay type: cell-based; conditions: dose 0.16-10 µM
T2 sequence (whole entry): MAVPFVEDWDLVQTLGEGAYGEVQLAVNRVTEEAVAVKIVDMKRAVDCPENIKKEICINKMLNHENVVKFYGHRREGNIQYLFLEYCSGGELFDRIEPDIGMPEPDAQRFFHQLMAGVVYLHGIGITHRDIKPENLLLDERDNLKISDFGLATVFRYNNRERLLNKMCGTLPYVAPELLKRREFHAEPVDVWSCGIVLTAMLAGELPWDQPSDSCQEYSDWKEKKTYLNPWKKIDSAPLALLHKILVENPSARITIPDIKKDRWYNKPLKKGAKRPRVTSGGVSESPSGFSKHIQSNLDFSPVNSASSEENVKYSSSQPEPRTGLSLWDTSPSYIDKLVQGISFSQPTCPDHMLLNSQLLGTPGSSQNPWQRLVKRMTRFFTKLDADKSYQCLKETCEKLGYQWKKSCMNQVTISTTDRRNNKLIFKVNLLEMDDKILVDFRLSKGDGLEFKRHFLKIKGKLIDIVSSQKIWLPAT

LoVo [7] = experiment: Cell cycle arrest in human LoVo cells assessed as accumulation of cells at G0/G1 phase at 0.5 uM incubated for 72 hrs by PI staining based flow cytometric analysis (reference value: 52.3 %); assay type: functional
[8] = Toxicity in BALB/c nude mouse xenografted with human LoVo cells assessed as body weight loss at 12.5 mg/kg, ip administered once daily for 15 days in presence of cisplatin; assay type: organism-based; conditions: in vivo, 360 h, time 15 day
NCM460 = experiment: Cytotoxicity against human NCM460 cells; assay type: toxicity, cell-based
[9] = target: DNA-dependent protein kinase catalytic subunit (Homo sapiens) (UniProt P78527); experiment: Induction of DNA-PK degradation in human LoVo cells at 0.16 to 10 uM incubated for 72 hrs by Western blot analysis; assay type: cell-based; conditions: dose 0.16-10 µM
LoVo [10] = experiment: Cell cycle arrest in human LoVo cells assessed as accumulation of cells at G0/G1 phase at 1 uM incubated for 72 hrs by PI staining based flow cytometric analysis (reference value: 52.3 %); assay type: functional
[11] = target: T1, Protein cereblon/Serine/threonine-protein kinase ATR; experiment: PROTAC activity at CRBN/ATR in human LoVo cells assessed as induction of ATR degradation at 2.5 uM preincubated for 36 hrs followed by compound washout and measured after 12 to 48 hrs by Western blot analysis; assay type: cell-based
[12] = AUC (0 to t) in BALB/c nude mouse xenografted with human LoVo cells at 25 mg/kg, ip administered as single dose and measured after 12 hrs by LC-MS/MS analysis; assay type: ADME, organism-based; conditions: in vivo
LoVo [13] = experiment: Induction of DNA damage in human LoVo cells assessed as increase in gammaH2AX expression at 0.5 to 1 uM incubated for 72 hrs by DAPI staining based immunofluorescence analysis; assay type: functional, cell-based; conditions: dose 0.5-1 µM
LoVo [14] = experiment: Induction of apoptosis in human LoVo cells assessed as apoptotic rate at 0.5 uM incubated for 48 hrs by Annexin V-FITC/PI staining based flow cytometric analysis (reference value: 5.32 %); assay type: functional
LoVo [15] = experiment: Antitumor activity against human LoVo cells xenografted in BALB/c nude mouse assessed as induction of DNA damage by measuring increase in gammaH2AX protein level; assay type: functional, cell-based
[16] = Free drug concentration in tumor of BALB/c nude mouse xenografted with human LoVo cells at 25 mg/kg, ip administered as single dose and measured after 12 hrs by LC-MS/MS analysis; assay type: ADME, organism-based; conditions: in vivo
HCT-116 = experiment: Antiproliferative activity against human HCT-116 cells expressing wildtype ATM incubated for 72 hrs by CCK8 assay; assay type: functional, cell-based; conditions: HCT-116, 72 h
[17] = target: T1, Protein cereblon/Serine/threonine-protein kinase ATR; experiment: PROTAC activity at CRBN/ATR in human LoVo cells assessed as induction of ATR degradation at 2.5 uM preincubated with MG132 for 4 hrs followed by compound addition and measured after 48 hrs by Western blot analysis; assay type: cell-based
LoVo [18] = experiment: Cell cycle arrest in human LoVo cells assessed as accumulation of cells at S phase at 0.5 uM incubated for 72 hrs by PI staining based flow cytometric analysis (reference value: 25.5 %); assay type: functional
LoVo [19] = experiment: Induction of LBP degradation in human LoVo cells at 1 uM incubated for 24 hrs by global proteomic profiling analysis; assay type: cell-based
[20] = target: T1, Protein cereblon/Serine/threonine-protein kinase ATR; experiment: In vivo PROTAC activity at CRBN/ATR in BALB/c nude mouse xenografted with human LoVo cells assessed as reduction in ATR phosphorylation at Thr1989 residue administered intraperitoneally once daily for 15 days by Western blot analysis; assay type: functional, organism-based; conditions: dose 12.5-25 mg/kg, route ip, time 15.0 day
[21] = target: T1, Protein cereblon/Serine/threonine-protein kinase ATR; experiment: PROTAC activity at CRBN/ATR in human LoVo cells assessed as induction of ATR degradation at 2.5 uM preincubated with pomalidomide for 4 hrs followed by compound addition and measured after 48 hrs by Western blot analysis; assay type: cell-based
[22] = Toxicity in BALB/c nude mouse xenografted with human LoVo cells assessed as effect on kidney at 12.5 to 25 mg/kg, ip administered twice daily for 15 days by H and E staining based analysis; assay type: organism-based; conditions: in vivo, 360 h, dose 12.5-25 mg/kg, time 15 day
[23] = target: Serine/threonine-protein kinase ATR (Homo sapiens, UniProt Q13535); experiment: Inhibition of ATR phosphorylation at Thr1989 residue in human LoVo cells incubated for 72 hrs by Western blot analysis; assay type: cell-based; conditions: dose 0.16-10 µM
LoVo [24] = experiment: Cell cycle arrest in human LoVo cells assessed as accumulation of cells at G2/M phase at 1 uM incubated for 72 hrs by PI staining based flow cytometric analysis (reference value: 22.2 %); assay type: functional
[25] = target: T1, Protein cereblon/Serine/threonine-protein kinase ATR; experiment: PROTAC activity at CRBN/ATR in human LoVo cells assessed as increase in ATR-CRBN protein-protein interaction by co-immunoprecipitation analysis; assay type: cell-based

C[C@@H]1COCCN1c1cc(C2([S@@](C)(=O)=NC(=O)CCc3cn(CCCCCCCC(=O)Nc4cccc5c4C(=O)N(C4CCC(=O)NC4=O)C5=O)nn3)CC2)nc(-c2ccnc3[nH]ccc23)n1 (some centres not stated)
Activity [1]: Active | Activity (LoVo [2]): 19.7% | Activity [3]: Dose-Dependent Effect | Activity (LoVo [4]): 19.3% | Activity [5]: inactive | inhibition [6]: Dose-Dependent Effect | Activity (LoVo [7]): 57.9% | Activity [8]: Non-Toxic | Activity (NCM460): Non-Toxic | Activity [9]: inactive | Activity (LoVo [10]): 67.3% | Activity [11]: Active | AUC(0-t) at 12 h [12]: 4550 ng·h/mL | Activity (LoVo [13]): Active | Activity (LoVo [14]): 23.91% | Activity (LoVo [15]): Active | Drug uptake(free) [16]: ~ 6 uM | IC50 (HCT-116): 5.1 µM | Activity [17]: inactive | Activity (LoVo [18]): 22.4% | Activity (LoVo [19]): Active | Activity [20]: Dose-Dependent Effect | Activity [21]: inactive | Activity [22]: Non-Toxic | inhibition [23]: Dose-Dependent Effect | Activity (LoVo [24]): 13.4% | Activity [25]: Active
